Literature values, collected in patent publication US20050288338A1, “Amido compounds and their use as pharmaceuticals” (priority 2004, published 2005).

Target: T1, 11βHSD1 in the eye (Homo sapiens, UniProt P28845)
T1 construct: host or cells: eye of healthy human volunteers (in vivo)
Conditions: healthy volunteers, after seven days of carbenoxolone treatment

T1 sequence (P28845 whole entry): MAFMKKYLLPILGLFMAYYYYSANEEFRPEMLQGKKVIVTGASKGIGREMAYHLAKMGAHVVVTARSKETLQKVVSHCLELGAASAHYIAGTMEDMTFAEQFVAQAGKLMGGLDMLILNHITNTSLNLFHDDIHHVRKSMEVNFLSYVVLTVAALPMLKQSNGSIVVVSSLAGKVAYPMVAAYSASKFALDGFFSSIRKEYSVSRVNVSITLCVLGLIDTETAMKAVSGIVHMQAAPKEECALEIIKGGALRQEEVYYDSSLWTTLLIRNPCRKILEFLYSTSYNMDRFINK

SMILES: CC1(C)[C@@H](OC(=O)CCC(=O)O)CC[C@]2(C)[C@H]3C(=O)C=C4[C@@H]5C[C@@](C)(C(=O)O)CC[C@]5(C)CC[C@@]4(C)[C@]3(C)CC[C@@H]12 [carbenoxolone]
- IOP was reduced by: 18%
